Test results reported in patent US5916906A, “Compositions comprising nicotinylalanine and an inhibitor of glycine conjugation or vitamin B6” (priority 1997, dated 1999).
Where two headings read alike, the source gives them in different places.

Key:
Type in all cases: in vivo, C57BL/6 mice
[1] = Plasma nicotinamide, NAL and NAL-X levels by HPLC after i.p. nicotinylalanine with or without ASA in uninfected mice; settings: for Plasma nicotinamide (NAm) level / concentration at 2 h: mean ± S.E., N=8; for concentration at 2 h: mouse, plasma, ip, 400 mg/kg, read-out: Plasma nicotinylalanine (NAL) level
Description: The concentration of nicotinamide and its major metabolites were determined by comparison of peak area ratios of the unknown versus internal standard (6-methylnicotinamide, Sigma Chemical Company) to the standard curves run in control mouse blood plasma.
Mice were treated with racemic nicotinylalanine alone (400 mg/kg) or in combination with acetyl salicylic acid (ASA) at a dose of either 20 mg/kg or 100 mg/kg body weight. […] Control mice received the vehicle for the drug compositions, being phosphate buffered saline (PBS), at the same volume on the same dose schedule as the drug-treated mice. Chronic dosing was performed daily for two weeks, Monday through Friday, and one group of mice received only a single (acute) dose of nicotinylalanine. All mice were killed two hours after their final dose and blood was collected by cardiac puncture and stored on ice, until centrifugation in a microfuge at 10,000 rpm to obtain plasma.
Concentrations of nicotinamide, nicotinamide-oxide, 1-methyl-nicotinamide, and nicotinylalanine extracted from 90% methanol, dried under N2, and reconstituted in water as above were determined by comparison of the peak area ratios of the unknown vs. the internal standard to the standard curve. Concentrations of the unidentified nicotinylalanine metabolite (NAL-X) were determined in the same way as above, except peaks were compared to the standard curve for known nicotinylalanine. The results are expressed as nanomoles of nicotinamide and nicotinylalanine per ml of plasma (nmol/ml).

[2] = Hematocrit of LP-BM5 infected mice (hematopoietic toxicity); settings: mouse, in vivo
Description: Disease progression was monitored by measuring serum IgM levels by ELISA on all animals at monthly intervals during the course of disease. Three mice per group were randomly selected and sacrificed at monthly intervals (end of month one through four) of the study. Disease scores for each animal were recorded weekly based upon palpation of lymph nodes and spleen. Complete gross necropsies were performed on these euthanized animals and the ratio of recorded spleen to body weights was an additional indicator of diseases progression. […] Infection was quantified by ecotropic virus XC plaque assays of spleens removed from the interim sacrificed animals. The study was to be terminated when mice were either dead or disease scores were +4 in more than 50% of the vehicle-treated MAIDS controls (Group 1), which occurred at 19 weeks post-inoculation of the virus pool. However, as the remaining mice in Group 1 were slow to progress towards more severe disease (FIG. 5) or death (FIG. 6), the study was extended until a termination date of 28 weeks post-inoculation.
Mice were maintained through the fifth month post virus inoculation until

[3] = Plasma pharmacokinetics of nicotinylalanine after i.v., i.p. and oral administration; settings: for bioavailability / half-life / Tmax: 400 mg/kg; for Tmax: read-out: Time of peak plasma level of NAL (converted); for k el: read-out: Ke (converted)
Description: The purpose of this study was to determine the plasma pharmacokinetics of nicotinylalanine in fasted, female C57BL/6 mice after intravenous (i.v.), intraperitoneal (i.p.), and oral (p.o.) administration of equivalent doses of nicotinylalanine at 400 mg/kg body weight. The analytic methods used in these studies were the same as described in Example 1 and Table 1 for Metabolic Studies.
Bioavailability of nicotinylalanine after p.o. and i.p. administration was determined by comparison of the areas under the plasma time curves with the area under the plasma time curve for the i.v. administration of an equivalent dose at 400 mg/kg into the tail vein. Time points were evaluated from five minutes to 1,440 minutes (24 hours) after dosing, although the rapid pharmacokinetics under each dosing regimen focused the time parameters to less than six hours.
Although there are several compartmental analyses which could be used to model the pharmacokinetic data, for derivation of pharmacokinetic parameters a simple non-compartmental analysis was selected. The computer program used to generate the parameters (Table 5) and for fitting the curves (FIGS. 7, 8) was the Lagran Program using the Lagrange Function. See, Rocci M. L. and Jusko W. J. 1983, "Lagran Program for Area and Moments in Pharmacokinetic Analysis", Comp. Prog. Biomed. 16, 203-212; and Yeh K. C. and Quan K. C. 1978, "A Comparison of Numerical Integrating Algorithms by Trapezoidal Lagrange and Spline Approximations", J. Pharmacokinet. Biopharmacol. 6, 79-93.

[4] = Plasma nicotinamide levels in LP-BM5 infected mice (HPLC); settings: NAL 400 mg/kg; for Mean Plasma Nicotinamide Level: virus-positive, mean ± SD
Description: Mice were sacrificed on Tuesdays at monthly intervals after
inoculation, approximately 24 hours after their last treatment.
At time of sacrifice, blood was collected by cardiac puncture and stored
Results are expressed as mean concentrations ± standard deviation in

[5] = Behavioral toxicity, chronic i.p. dosing in mice; settings: chronic i.p. racemic NAL 400 mg/kg, more than four months
Description: Results from studies in a mouse model of AIDS (i.e., the LP-BM5 strain of murine leukemia virus-induced murine acquired immunodeficiency syndrome, MAIDS) are consistent with efficacy of a parenteral dose in humans of nicotinylalanine (isomer) between about 100 and 200 mg/kg body weight per day in combination with aspirin at about 20 mg/kg per day. […] Connick J. H., et al., Gen. Pharmac., 23:235-239, 1992. […] Vague P., et al., Lancet, I:619-620, 1987. This is consistent with the lack of toxicity reported for NAm in other human studies. (Hoffer A., Schizophrenia, 1:78-87, 1969).

[6] = acute (single) NAL 400 mg/kg i.p., two hours after dose
[7] = chronic (2 Week) dosing of nicotinylalanine alone
[8] = chronic (2 weeks) NAL 400 mg/kg i.p. alone, two hours after last dose
[9] = two hours after acute i.p. 400 mg/kg NAL

SMILES: NC(CC(=O)c1cccnc1)C(=O)O (racemic) [NAL, γ-(3-pyridyl)-γ-oxo-α-aminobutyrate]
- Plasma nicotinamide (NAm) level [1, 6]: 7.4 ± 2.3 nmol/mL
- Change in plasma nicotinylalanine levels [1, 7]: nearly ten-fold decrease
- Nicotinamide plasma level (in words) [1, 7]: return to nearly baseline levels of nicotinamide
- Plasma nicotinamide (NAm) level [1, 8]: 4.7 ± 1.1 nmol/mL
- concentration at 2 h [1, 6]: 115 ± 65.6 µM
- concentration at 2 h [1, 8]: 11.2 ± 4.5 µM
- Nicotinamide plasma level versus PBS-injected controls [1, 9]: about twice those found in PBS-injected controls
- Plasma level of NAL versus NAL-X [1, 9]: about twice as high
- Effect on decreased hematocrit (in words) [2]: protective effect
- CL ([3]; NAL 400 mg/kg, i.p., fasted female mice): 31.6
- CL ([3]; NAL 400 mg/kg, p.o., fasted female mice): 50.2
- Volume of distribution (Vdss), in words ([3]; especially in the oral dosage form): consistent with a compound well-distributed in aqueous compartments
- Bioavailability i.p. versus i.v. or oral, in words ([3]; i.p. compared to i.v. or oral): apparently greater however when the i.p. route is used
- bioavailability ([3]; mouse, plasma, ip, NAL 400 mg/kg, i.p., fasted female mice, read-out: F (fraction bioavailable)): 183%
- half-life ([3]; mouse, plasma, ip, NAL 400 mg/kg, i.p., fasted female mice, read-out: t1/2): 24.9 min
- half-life ([3]; mouse, plasma, ip, i.p., read-out: t1/2 (half-life of plasma nicotinylalanine)): ~25 min
- Tmax ([3]; mouse, plasma, ip): ~5 min
- k el ([3]; mouse, plasma, ip, NAL 400 mg/kg, i.p., fasted female mice): 0.000463 s⁻¹
- Vd/F ([3]; mouse, plasma, ip, NAL 400 mg/kg, i.p., fasted female mice, read-out: Vdss): 0.821 L/kg
- half-life ([3]; mouse, plasma, iv, NAL 400 mg/kg, i.v., fasted female mice, read-out: t1/2): 40.2 min
- half-life ([3]; mouse, plasma, iv, i.v., read-out: t1/2 (half-life of plasma nicotinylalanine)): ~40 min
- Tmax ([3]; mouse, plasma, iv): ~5 min
- clearance ([3]; mouse, plasma, iv, NAL 400 mg/kg, fasted female mice): 57.3 mL/min/kg
- k el ([3]; mouse, plasma, iv, NAL 400 mg/kg, i.v., fasted female mice): 0.000287 s⁻¹
- Vd ([3]; mouse, plasma, iv, NAL 400 mg/kg, i.v., fasted female mice, read-out: Vdss): 1.33 L/kg
- bioavailability ([3]; mouse, plasma, po, NAL 400 mg/kg, p.o., fasted female mice, read-out: F (fraction bioavailable)): 105%
- half-life ([3]; mouse, plasma, po, NAL 400 mg/kg, p.o., fasted female mice, read-out: t1/2): 58.7 min
- bioavailability ([3]; mouse, plasma, po, oral dose, read-out: fraction bioavailable (F)): ~100%
- half-life ([3]; mouse, plasma, po, oral, read-out: t1/2 (half-life of plasma nicotinylalanine)): ~60 min
- k el ([3]; mouse, plasma, po, NAL 400 mg/kg, p.o., fasted female mice): 0.000197 s⁻¹
- Vd/F ([3]; mouse, plasma, po, NAL 400 mg/kg, p.o., fasted female mice, read-out: Vdss): 3.35 L/kg
- Tmax ([3]; mouse, plasma, oral gavage): ~10 min
- Nicotinamide plasma level versus control ([3]; oral NAL 400 mg/kg, transient): about twice control
- t1/2 oral versus i.p. ([3]; oral compared with i.p. dose): approximately twice as long
- t1/2 oral versus i.v. ([3]; oral compared with i.v. dose): approximately one and a half (11/2) times as long
- Ratio of plasma nicotinamide mean to placebo (PBS Control, Group 1) ([4]; Month 1, ASA 20 mg/kg, AZT as in Table 4): 1.06
- Ratio of plasma nicotinamide mean to placebo (PBS Control, Group 1) ([4]; Month 1, delayed 2 weeks): 1.16
- Mean Plasma Nicotinamide Level ([4]; Month 1, ~24 h after last treatment, ASA 20 mg/kg, AZT printed 1 mg/kg): 3.4 ± 0.9 nmol/mL
- Mean Plasma Nicotinamide Level ([4]; Month 1, delayed Rx 2 weeks): 3.7 ± 1.1 nmol/mL
- Ratio of plasma nicotinamide mean to placebo (PBS Control, Group 1) ([4]; Month 2, ASA 20 mg/kg, AZT as in Table 4): 1.13
- Ratio of plasma nicotinamide mean to placebo (PBS Control, Group 1) ([4]; Month 2, delayed 2 weeks): 1.49
- Mean Plasma Nicotinamide Level ([4]; Month 2, ~24 h after last treatment, ASA 20 mg/kg, AZT printed 1 mg/kg): 4.4 ± 0.5 nmol/mL
- Mean Plasma Nicotinamide Level ([4]; Month 2, delayed Rx 2 weeks): 5.8 ± 0.5 nmol/mL
- Ratio of plasma nicotinamide mean to placebo (PBS Control, Group 1) ([4]; Month 3, ASA 20 mg/kg, AZT as in Table 4): 1.35
- Ratio of plasma nicotinamide mean to placebo (PBS Control, Group 1) ([4]; Month 3, delayed 2 weeks): 1.65
- Mean Plasma Nicotinamide Level ([4]; Month 3, ~24 h after last treatment, ASA 20 mg/kg, AZT printed 1 mg/kg): 3.1 ± 0.4 nmol/mL
- Mean Plasma Nicotinamide Level ([4]; Month 3, delayed Rx 2 weeks): 3.8 ± 0.1 nmol/mL
- Ratio of plasma nicotinamide mean to placebo (PBS Control, Group 1) ([4]; Month 4, ASA 20 mg/kg, AZT as in Table 4): 1.88
- Ratio of plasma nicotinamide mean to placebo (PBS Control, Group 1) ([4]; Month 4, delayed 2 weeks): 1.84
- Mean Plasma Nicotinamide Level ([4]; Month 4, ~24 h after last treatment, ASA 20 mg/kg, AZT printed 1 mg/kg): 4.7 ± 0.5 nmol/mL
- Mean Plasma Nicotinamide Level ([4]; Month 4, delayed Rx 2 weeks): 4.6 ± 0.3 nmol/mL
- Behavioral toxicity [5]: not been associated with obvious behavioral toxicity
